Experimental findings from paper PMC8165744, “Identification of an Alternative Glycyrrhizin Metabolite Causing Liquorice-Induced Pseudohyperaldosteronism and the Development of ELISA System to Detect the Predictive Biomarker” (Frontiers in Pharmacology, 2021) are described below.

Each structure is given as a SMILES string.

The data set has as its target T1, human OAT1 (Homo sapiens, UniProt Q4U2R8).
T1 construct: expressed in transfected cells; host or cells: HEK293 cells, pCI-neo vector
T1 sequence (Q4U2R8 1-563): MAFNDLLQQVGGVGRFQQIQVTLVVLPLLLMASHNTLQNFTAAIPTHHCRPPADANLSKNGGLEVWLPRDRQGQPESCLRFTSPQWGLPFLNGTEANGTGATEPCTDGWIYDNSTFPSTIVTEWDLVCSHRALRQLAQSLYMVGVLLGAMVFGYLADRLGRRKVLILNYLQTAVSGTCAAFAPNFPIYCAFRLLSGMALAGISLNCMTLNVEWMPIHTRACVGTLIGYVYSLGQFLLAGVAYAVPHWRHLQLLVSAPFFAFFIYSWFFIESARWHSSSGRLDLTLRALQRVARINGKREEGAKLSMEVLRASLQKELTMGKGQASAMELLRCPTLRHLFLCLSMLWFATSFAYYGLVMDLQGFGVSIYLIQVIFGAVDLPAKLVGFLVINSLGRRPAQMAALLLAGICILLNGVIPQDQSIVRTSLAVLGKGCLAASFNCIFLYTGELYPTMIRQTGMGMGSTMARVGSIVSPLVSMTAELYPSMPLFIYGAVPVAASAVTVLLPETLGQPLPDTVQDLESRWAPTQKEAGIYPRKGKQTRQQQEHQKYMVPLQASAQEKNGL
As to the kind of experiment: uptake into HEK293 cells transfected with OAT1. The class given is in vitro ADME. The following applies: HEK293, EHBR plasma, 37°C, 15 min. An excerpt: Uptake of Compound 4 by Rat Kidney Slices and Cells Expressing OAT1 and 3
For the uptake study of 4 into rat kidney slices, we used the samples obtained in our previous study ([Ishiuchi et al., 2019]). For the uptake study of 4 into the cells transiently expressing OAT1 and OAT3, we used the same protocol as in our previous study ([Makino et al., 2012]). cDNAs encoding human OAT1 and OAT3 inserted into pGH19 were generously supplied by Prof. Mitsuru Sugawara (Hokkaido University, Sapporo, Japan), and then subcloned into a pCI-neo mammalian expression vector (Promega, Madison, WI, United States). We used the same pooled plasma of male EHBRs orally treated with GA for 12 h used in our previous study ([Ishiuchi et al., 2019]).
FIGURE 2 Inhibitory effects of compound 4 on type-2 11β-hydroxysteroid dehydrogenase (11β-HSD2) using rat kidney microsome (A), and the uptake of 4 into rat kidney slices (B) or into HEK293 cells transfected with organic anion transporter (OAT) 1 (C) or OAT3 (D). […] Then, the amount of [^3H] cortisol was measured. […] Concentrations of 4 in kidney slice homogenates were measured using liquid chromatography-tandem mass spectrometry (LC-MS/MS). **p < 0.01 vs 4°C group using Student’s t-test (C) Male EHBRs were orally treated with GA (200 mg/kg) and their plasma samples were collected […] after treatment. […] Then, concentrations of 4 in cells were measured using LC-MS/MS. […]

In the case of `CC1(C)[C@@H](OS(=O)(=O)O)CC[C@]2(C)[C@H]3C(=O)C=C4[C@@H]5C[C@@](C)(C(=O)O[C@@H]6O[C@H](C(=O)O)[C@@H](O)[C@H](O)[C@H]6O)CC[C@]5(C)CC[C@@]4(C)[C@]3(C)CC[C@@H]12` [Compound 4, 18β-glycyrrhetyl-3-O-sulfate-30-O-glucuronide], the “uptake into cells expressing OAT1 vs mock cells” value was “significantly higher”.
